Assay results taken from paper PMC8573357, “Exploring Multifunctional Bioactive Components from Podophyllum sinense Using Multi-Target Ultrafiltration” (Frontiers in Pharmacology, 2021).

Target: ACE2 (Homo sapiens, UniProt Q9BYF1)
Experiment: affinity ultrafiltration-HPLC/MS from crude extract against heat-inactivated control; identity by standard
Type: binding

Chain of ACE2 (Q9BYF1 18-805): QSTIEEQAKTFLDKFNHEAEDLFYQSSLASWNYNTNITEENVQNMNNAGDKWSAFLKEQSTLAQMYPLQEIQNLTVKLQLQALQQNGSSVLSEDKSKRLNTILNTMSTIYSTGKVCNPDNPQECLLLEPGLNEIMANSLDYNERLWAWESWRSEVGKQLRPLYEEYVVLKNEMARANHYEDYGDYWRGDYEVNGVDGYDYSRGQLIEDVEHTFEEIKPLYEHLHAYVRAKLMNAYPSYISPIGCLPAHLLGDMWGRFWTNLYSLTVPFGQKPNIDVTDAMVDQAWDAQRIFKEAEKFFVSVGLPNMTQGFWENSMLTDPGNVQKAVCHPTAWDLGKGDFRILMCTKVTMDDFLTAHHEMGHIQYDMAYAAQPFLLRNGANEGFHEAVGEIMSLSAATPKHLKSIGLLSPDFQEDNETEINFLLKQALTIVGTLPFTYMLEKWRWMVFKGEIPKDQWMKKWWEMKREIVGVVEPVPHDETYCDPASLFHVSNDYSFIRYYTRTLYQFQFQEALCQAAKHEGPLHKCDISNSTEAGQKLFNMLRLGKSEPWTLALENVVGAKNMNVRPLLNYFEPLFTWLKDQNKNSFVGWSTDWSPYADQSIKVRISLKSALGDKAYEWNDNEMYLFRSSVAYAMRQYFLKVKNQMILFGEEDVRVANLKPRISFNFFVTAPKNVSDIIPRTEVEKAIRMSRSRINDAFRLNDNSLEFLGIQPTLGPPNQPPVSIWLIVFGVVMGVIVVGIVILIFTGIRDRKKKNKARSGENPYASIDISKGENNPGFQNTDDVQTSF

EFs ^b (%) / ACE2	SMILES
3.68 % (enrichment factor)	COc1cc2c(O)c3c(c(-c4ccc5c(c4)OCO5)c2cc1OC)C(=O)OC3 [Peak 10, Diphyllin]
3.10 % (enrichment factor)	O=c1c(O)c(-c2ccc(O)cc2)oc2cc(O)cc(O)c12 [Peak 7, Kaempferol]
